Data from US20090291968A1, “SUBSTITUTED INDAZOLE DERIVATIVES, THEIR MANUFACTURE AND USE AS PHARMACEUTICAL AGENTS” (priority 2006, published 2009).

test system: HCT 116 cells; assay: CellTiter-Glo assay in HCT 116 cells (cell viability); format: cell-based; settings: 120 h; HCT 116 human colon carcinoma cells, 5 days incubation, CellTiter-Glo luminescence
Description: The CellTiter-Glo™ Luminescent Cell Viability Assay (Promega) is a homogeneous method of determining the number of viable cells in culture based on quantitation of the ATP present, which signals the presence of metabolically active cells.
HCT 116 cells (human colon carcinoma, ATCC-No. CCl-247) were cultivated in RPMI 1640 medium with GlutaMAX™ I (Invitrogen, Cat-No. 61870-010), 2,5% Fetal Calf Serum (FCS, Sigma Cat-No. F4135 (FBS)); 100 Units/ml penicillin/100 μg/ml streptomycin (=Pen/Strep from Invitrogen Cat. No. 15140). For the assay the cells were seeded in 384 well plates, 1000 cells per well, in the same medium. The next day the test compounds were added in various concentrations ranging from 30 μM to 0.0015 μM (10 concentrations, 1:3 diluted). After 5 days the CellTiter-Glo™ assay was done according to the instructions of the manufacturer (CellTiter-Glo™ Luminescent Cell Viability Assay, from Promega). In brief: the cell-plate was equilibrated to room temperature for approximately 30 minutes and than the CellTiter-Glo™ reagent was added. The contents were carefully mixed for 15 minutes to induce cell lysis. After 45 minutes the luminescent signal was measured in Victor 2, (scanning multiwell spectrophotometer, Wallac).
1st. Day: • Medium: RPMI 1640 with GlutaMAX™ I (Invitrogen, Cat-Nr. 61870), 5% FCS (Sigma Cat.-No. F4135), Pen/Strep (Invitrogen, Cat No. 15140). • HCT116 (ATCC-No. CCl-247): 1000 cells in 60 μl per well of 384 well plate (Greiner 781098, μClear-plate white) • After seeding incubate plates 24 h at 37° C., 5% CO2 2nd. Day: Induction (Treatment with Compounds, 10 Concentrations):
In order to achieve a final concentration of 30 μM as highest concentration 3.5 μl of 10 mM compound stock solution were added directly to 163 μl media. Then step e) of the dilution procedure described below, was followed.
In order to achieve the second highest to the lowest concentrations, a serial dilution with dilution steps of 1:3 was followed according to the procedure (a-e) as described here below: • a) for the second highest concentration add 10 μl of 10 mM stock solution of compound to 20 μl dimethylsulfoxide (DMSO) • b) dilute 8×1:3 (always 10 μl to 20 μl DMSO) in this DMSO dilution row (results in 9 wells with concentrations from 3333.3 μM to 0.51 μM) • c) dilute each concentration 1:47.6 (3.5 μl compound dilution to 163 μl media) • e) add 10 μl of every concentration to 60 μl media in the cell plate resulting in final concentration of DMSO: 0.3% in every well and resulting in 10 final concentration of compounds ranging from 30 μM to 0.0015 μM. • Each compound is tested in triplicate. • Incubate 120 h (5 days) at 37° C., 5% CO2
• Add 30 μl CellTiter-Glo™ Reagent (prepared from CellTiter-Glo™ Buffer and CellTiter-Glo™ Substrate (lyophilized) purchased from Promega) per well, • shake 15 minutes at room temperature • incubate further 45 minutes at room temperature without shaking
• Victor 2 scanning multiwell spectrophotometer (Wallac), Luminescence mode (0.5 sec/read, 477 nm) • Determine IC50 using a non-linear curve fit (XLfit software (ID Business Solution Ltd., Guilford, Surrey, UK))

| SMILES | IC50 |
| --- | --- |
| CCN1C(=O)C(C)(C)c2cc3nc(-c4n[nH]c5ccc(-c6ccsc6)cc45)[nH]c3cc21 [Example 25, 5-Ethyl-7,7-dimethyl-2-(5-thiophen-3-yl-1H-indazol-3-yl)-5,7-dihydro-3H-imidazo[4,5-f]indol-6-one; compound with acetic acid] | 25 to 1500 nM |
| CCN1C(=O)C(C)(C)c2cc3nc(-c4n[nH]c5ccc(-c6ccc(OC)nc6)cc45)[nH]c3cc21 [Example 24, 5-Ethyl-2-[5-(6-methoxy-pyridin-3-yl)-1H-indazol-3-yl]-7,7-dimethyl-5,7-dihydro-3H-imidazo[4,5-f]indol-6-one; compound with acetic acid] | 25 to 1500 nM |
| CCN1C(=O)C(C)(C)c2cc3nc(-c4n[nH]c5cc(-c6cn[nH]c6)ccc45)[nH]c3cc21 [Example 37, 5-Ethyl-7,7-dimethyl-2-[6-(1H-pyrazol-4-yl)-1H-indazol-3-yl]-5,7-dihydro-3H-imidazo[4,5-f]indol-6-one] | 25 to 1500 nM |
| CCN1C(=O)C(C)(C)c2cc3nc(-c4n[nH]c5cc(-c6cccs6)ccc45)[nH]c3cc21 [Example 16, 5-Ethyl-7,7-dimethyl-2-(6-thiophen-2-yl-1H-indazol-3-yl)-5,7-dihydro-3H-imidazo[4,5-f]indol-6-one] | 25 to 1500 nM |
| CCN1C(=O)C(C)(C)c2cc3nc(-c4n[nH]c5ccc(-c6cccnc6)cc45)[nH]c3cc21 [Example 27, 5-Ethyl-7,7-dimethyl-2-(5-pyridin-3-yl-1H-indazol-3-yl)-5,7-dihydro-3H-imidazo[4,5-f]indol-6-one] | 25 to 1500 nM |
| CCN1C(=O)C(C)(C)c2cc3nc(-c4n[nH]c5cc(/C=C/c6ccc(Cl)cc6)ccc45)[nH]c3cc21 [Example 18, 2-{6-[(E)-2-(4-Chloro-phenyl)-vinyl]-1H-indazol-3-yl}-5-ethyl-7,7-dimethyl-5,7-dihydro-3H-imidazo[4,5-f]indol-6-one] | 25 to 1500 nM |
| CCN1C(=O)C(C)(C)c2cc3nc(-c4n[nH]c5cc(-c6cccc(N(C)C)c6)ccc45)[nH]c3cc21 [Example 21, 2-[6-(3-Dimethylamino-phenyl)-1H-indazol-3-yl]-5-ethyl-7,7-dimethyl-5,7-dihydro-3H-imidazo[4,5-f]indol-6-one] | 25 to 1500 nM |
| CCN1C(=O)C(C)(C)c2cc3nc(-c4n[nH]c5cc(-c6ccccn6)ccc45)[nH]c3cc21 [Example 33, 5-Ethyl-7,7-dimethyl-2-(6-pyridin-2-yl-1H-indazol-3-yl)-5,7-dihydro-3H-imidazo[4,5-f]indol-6-one] | 25 to 1500 nM |
| CCN1C(=O)C(C)(C)c2cc3nc(-c4n[nH]c5cc(-c6ccc(OC)nc6)ccc45)[nH]c3cc21 [Example 14, 5-Ethyl-2-[6-(6-methoxy-pyridin-3-yl)-1H-indazol-3-yl]-7,7-dimethyl-5,7-dihydro-3H-imidazo[4,5-f]indol-6-one] | 25 to 1500 nM |
| CCN1C(=O)C(C)(C)c2cc3nc(-c4n[nH]c5ccc(-c6cncnc6)cc45)[nH]c3cc21 [Example 35, 5-Ethyl-7,7-dimethyl-2-(5-pyrimidin-5-yl-1H-indazol-3-yl)-5,7-dihydro-3H-imidazo[4,5-f]indol-6-one] | 25 to 1500 nM |
| CCN1C(=O)C(C)(C)c2cc3nc(-c4n[nH]c5cc(-c6cncnc6)ccc45)[nH]c3cc21 [Example 32, 5-Ethyl-7,7-dimethyl-2-(6-pyrimidin-5-yl-1H-indazol-3-yl)-5,7-dihydro-3H-imidazo[4,5-f]indol-6-one] | 25 to 1500 nM |

Second part, the molecule after the results:

| IC50 | SMILES |
| --- | --- |
| 25 to 1500 nM | CCN1C(=O)C(C)(C)c2cc3nc(-c4n[nH]c5cc(-c6nc[nH]n6)ccc45)[nH]c3cc21 [Example 2, 5-Ethyl-7,7-dimethyl-2-[6-(1H-[1,2,4]triazol-3-yl)-1H-indazol-3-yl]-5,7-dihydro-3H-imidazo[4,5-f]indol-6-one] |
| 25 to 1500 nM | CCN1C(=O)C(C)(C)c2cc3nc(-c4n[nH]c5cc(/C=C/c6ccc(-c7ccccc7)cc6)ccc45)[nH]c3cc21 [Example 9, 2-[6-((E)-2-Biphenyl-4-yl-vinyl)-1H-indazol-3-yl]-5-ethyl-7,7-dimethyl-5,7-dihydro-3H-imidazo[4,5-f]indol-6-one] |
| 25 to 1500 nM | CCN1C(=O)C(C)(C)c2cc3nc(-c4n[nH]c5ccc(-c6cnn(C)c6)cc45)[nH]c3cc21 [Example 26, 5-Ethyl-7,7-dimethyl-2-[5-(1-methyl-1H-pyrazol-4-yl)-1H-indazol-3-yl]-5,7-dihydro-3H-imidazo[4,5-f]indol-6-one; compound with acetic acid] |
| 25 to 1500 nM | CCN1C(=O)C(C)(C)c2cc3nc(-c4n[nH]c5cc(-c6cnn(C)c6)ccc45)[nH]c3cc21 [Example 7, 5-Ethyl-7,7-dimethyl-2-[6-(1-methyl-1H-pyrazol-4-yl)-1H-indazol-3-yl]-5,7-dihydro-3H-imidazo[4,5-f]indol-6-one] |
| 25 to 1500 nM | CCN1C(=O)C(C)(C)c2cc3nc(-c4n[nH]c5cc(/C=C/c6ccc(OC)cc6)ccc45)[nH]c3cc21 [Example 10, 5-Ethyl-2-{6-[(E)-2-(4-methoxy-phenyl)-vinyl]-1H-indazol-3-yl}-7,7-dimethyl-5,7-dihydro-3H-imidazo[4,5-f]indol-6-one] |
| 25 to 1500 nM | CCN1C(=O)C(C)(C)c2cc3nc(-c4n[nH]c5cc(-c6cccc([N+](=O)[O-])c6)ccc45)[nH]c3cc21 [Example 22, 5-Ethyl-7,7-dimethyl-2-[6-(3-nitro-phenyl)-1H-indazol-3-yl]-5,7-dihydro-3H-imidazo[4,5-f]indol-6-one] |
| 25 to 1500 nM | CCN1C(=O)C(C)(C)c2cc3nc(-c4n[nH]c5cc(-c6ccc(N(C)C)cc6)ccc45)[nH]c3cc21 [Example 12, 2-[6-(4-Dimethylamino-phenyl)-1H-indazol-3-yl]-5-ethyl-7,7-dimethyl-5,7-dihydro-3H-imidazo[4,5-f]indol-6-one] |
| 576 nM | CCN1C(=O)C(C)(C)c2cc3nc(-c4n[nH]c5cc(/C=C/c6ccccc6)ccc45)[nH]c3cc21 [Example 5, 5-Ethyl-7,7-dimethyl-2-[6-((E)-styryl)-1H-indazol-3-yl]-5,7-dihydro-3H-imidazo[4,5-f]indol-6-one] |
| 161 nM | CCN1C(=O)C(C)(C)c2cc3nc(-c4n[nH]c5cc(-c6cccnc6)ccc45)[nH]c3cc21 [Example 8, 5-Ethyl-7,7-dimethyl-2-(6-pyridin-3-yl-1H-indazol-3-yl)-5,7-dihydro-3H-imidazo[4,5-f]indol-6-one] |
| 328 nM | CCN1C(=O)C(C)(C)c2cc3nc(-c4n[nH]c5cc(-c6ccc(C(C)=O)cc6)ccc45)[nH]c3cc21 [Example 13, 2-[6-(4-Acetyl-phenyl)-1H-indazol-3-yl]-5-ethyl-7,7-dimethyl-5,7-dihydro-3H-imidazo[4,5-f]indol-6-one] |
| 562 nM | CCN1C(=O)C(C)(C)c2cc3nc(-c4n[nH]c5cc(-c6ccc7c(c6)OCO7)ccc45)[nH]c3cc21 [Example 20, 2-(6-Benzo[1,3]dioxol-5-yl-1H-indazol-3-yl)-5-ethyl-7,7-dimethyl-5,7-dihydro-3H-imidazo[4,5-f]indol-6-one] |
